In US6534512B1, “Dideoxycarbocyclic nucleosides” (Regents of the University of Minnesota, priority 1988, dated 2003):
≈ marks a conversion by molar mass, not a printed value.

Experiments:
HIV [1] = assay: Anti-HIV assay (NCI FCRF, XTT microculture tetrazolium), infected cells; assay type: cell-based; details: for anti-HIV activity: in vitro
Description: (§1) Compounds of formula I were screened for anti-HIV activity at the National Cancer Institute, Frederick Cancer Research Facility, Frederick, Md. (FCRF). The following are the current screening mode operational procedures utilized at FCRF. The protocol consists of 3 areas, (I) preparation of infected cells and distribution to the test plates, (II) preparation of drug dilution plates and distribution to the test plates, and (III) XTT assay procedure. See D. A. Scudiero et al., “A New Simplified Tetrazolium Assay for Cell Growth and Drug Sensitivity in Culture,” Cancer Res., 48, 4827 (1988).
Cells to be infected (a normal lymphoblastoid cell line which expresses CD4) are placed in 50 ml conical centrifuge tubes and treated for 1 hr with 1-2 μg/ml of polybrene at 37° C. The cells are then pelleted for 8 min. ) at 1200 rpm. HIV virus, diluted 1:10 in media (RMP1-1640, 10% human serum or 15% fetal calf serum (FCS), with IL-2, for ATH8 cells only, and antibiotics) is added to provided an MOI of 0.001. Medium alone is added to virus-free control cells. Assuming an infectious virus titer of 10^−4, an MOI of 0.001 represents […] infectious virus particles per 10,000 cells. About 500,000 cells/tube are exposed to 400 μl of the virus dilution. The resultant mixture is incubated for 1 hr at 37° C. in Air-CO2. The infected or uninfected cells are diluted to give 1×10^−4 (with human serum or 2×10^−4 with fetal calf serum) cells/100 μl.
Infected or uninfected cells (100 μl) are distributed to appropriate wells of a 96 well, U-bottom, microtiter plate. Each compound dilution is tested in duplicate with infected cells. Uninfected cells are examined for drug sensitivity in a single well for each dilution of compound. Drug-free control cells, infected and uninfected, are run in triplicate. Wells B2 through G2 served as reagent controls and received medium only. The plates are incubated at 37° C. in Air-CO2 until the drug is added.
Dilution plates (flat bottom 96 well, microtiter plates) are treated overnight with phosphate buffered saline (PBS) or media containing at least 1% FCS or 1% human serum (depending on the medium used in the test), beginning the day before assay. This “blocking” procedure is used to limit the adsorption of drug to the microtiter tray during the dilution process. The wells are filled completely with the blocking solution and allowed to stand at room temperature in a humidified chamber in a hood.
The dilution process is begun by first diluting the test compound 1:20. Blocked, dilution plates are prepared by flicking out the blocking solution and blotting dry on sterile gauze. All wells of each plate are then filled with 225 μl of the appropriate medium using a Cetus liquid handling system. Twenty-five microliters (25 μl) of each 1:20 diluted compound is then manually added to row A of a blocked and filled dilution plate. Four compounds, sufficient to supply two test plates, are added per dilution plate. The four compounds are then serially diluted ten-fold from row A through row H using the Cetus liquid handling system. The starting dilution of each compound in row A is, at this point, 1:200. The dilution plates are kept on ice until needed.
Using a multi-channel pipettor with 6 microtips, 100 μl of each drug dilution is transferred to the test plate which already contains 100 μl of medium plus cells. The final dilution, in the test plate, starts at 1:400 (wells B4 through G4). This dilution (to 0.25% DMSO) prevents the DMSO vehicle from interfering with cell growth. Drug-free, infected or uninfected cells (wells B3 through G3) and reagent controls (B2 through G2) receive medium alone. The final two compounds are then transferred from wells H7 through H12 to a second test plate using the same procedure. Test plates are incubated at 37° C. in Air-CO2 or 7-14 days or until virus controls are lysed as determined macroscopically.
1. […]

[2] = tested on: P-388 mouse leukemia cells; assay: P-388 mouse leukemia cell culture cytotoxicity assay; assay type: cell-based; details: cultured P-388 leukemia cells
Description: The ED50 cytotoxicity concentrations determined for analogs 7a, 9a, 10a, 16a, 16b, 17a and 17b in the P-388 mouse leukemia cell culture assay are given in Table II.

H9/HTLV-IIIB = assay: Earlier anti-HIV assay at the Southern Research Institute; assay type: cell-based; details: MT-2 cells cultured with H9/HTLV-IIIB
Description: An earlier assay carried out at the Southern Research Institute yielded a TI50 of about 200 when MT-2 cells were cultured with H9/HTLV-IIIB.

[3] = tested on: normal cells (uninfected); assay: Anti-HIV assay (NCI FCRF, XTT), drug sensitivity of uninfected cells; assay type: cell-based
Description: as §1
Cells to be infected (a normal lymphoblastoid cell line which expresses CD4) are placed in 50 ml conical centrifuge tubes and treated for 1 hr with 1-2 μg/ml of polybrene at 37° C. The cells are then pelleted for 8 min. ) at 1200 rpm. HIV virus, diluted 1:10 in media (RMP1-1640, 10% human serum or 15% fetal calf serum (FCS), with IL-2, for ATH8 cells only, and antibiotics) is added to provided an MOI of 0.001. Medium alone is added to virus-free control cells. […]
Using a multi-channel pipettor with 6 microtips, 100 μl of each drug dilution is transferred to the test plate which already contains 100 μl of medium plus cells. […] Test plates are incubated at 37° C. in Air-CO2 or 7-14 days or until virus controls are lysed as determined macroscopically. […]

HSV-1 = assay: Activity against HSV-1
HSV-2 = details: background; cited from earlier work
HIV [4] = tested on: HIV; design: TI50 against HIV in vitro: unit not given beside the values; details: background; cited from earlier work

SMILES | anti-HIV activity (HIV [1]) | cytotoxicity / activity against P-388 leukemia cells [2] | also measured
OCC1C=CC(n2cnc3c(Cl)ncnc32)C1 (racemic) [Compound 7a, (±)-(1α,4α)-4-(6-chloro-9H-purin-9-yl)-2-cyclopentenyl-carbinol] | active | cytotoxic | –
Nc1ncnc2c1ncn2C1C=CC(CO)C1 (racemic) [Compound 9a, (±)-(1α,4α)-4-(6-Amino-9H-purin-9-yl)-2-cyclopentenyl-carbinol] | active | cytotoxic | –
OCC1C=CC(n2cnc3c(S)ncnc32)C1 (racemic) [Compound 10a, (±)-(1α,4α)-4-(6-Mercapto-9H-purin-9-yl)-2-cyclopentenyl-carbinol] | active | cytotoxic | –
Nc1nc(Cl)c2ncn([C@H]3C=C[C@@H](CO)C3)c2n1 (racemic) [Compound 13a, (±)-(1α,4α)-4-(2-Amino-6-chloro-9H-purin-9-yl)-2-cyclopentenyl carbinol] | active | – | –
Nc1nc(O)c2ncn(C3C=CC(CO)C3)c2n1 (racemic) [Compound 14a, (±)-(1α,4α)-4-(2-Amino-6-hydroxy-9H-purin-9-yl)-2-cyclopentenyl carbinol] | strongly inhibits | – | TI50 (H9/HTLV-IIIB): about 200; effective concentration (EC50) with respect to infected cells (HIV [1]; calculated from FIG. 2 data): about 0.15 μg/ml; TI50, general range (HIV [1]; varied with the infected cell line used): 200-400; inhibitory concentration (IC50) with respect to normal cells ([3]; calculated from FIG. 2 data): about 100 μg/ml; activity against HSV-1 (HSV-1): active
Nc1nc(N)c2ncn([C@H]3C=C[C@@H](CO)C3)c2n1 (racemic) [Compound 15a, (±)-(1α,4α)-4-(2,6-Diamino-9H-purin-9-yl)-2-cyclopentenyl-carbinol] | active | – | –
Nc1nc(Cl)c2nnn(C3C=CC(CO)C3)c2n1 (racemic) [Compound 16a, (±)-(1α,4α)-4-(5-Amino-7-chloro-3H-1,2,3-triazolo[4,5d]-pyrimidin-3-yl)-2-cyclopentenyl carbinol] | – | cytotoxic | –
Nc1nc(O)c2nnn(C3C=CC(CO)C3)c2n1 (racemic) [Compound 17a, (±)-(1α,4α)-4-(5-Amino-7-hydroxy-3H-1,2,3-triazolo[4,5-d]-pyrimidin-3-yl)-2-cyclopentenyl carbinol] | – | cytotoxic | –
Nc1nc(N)c2nnn(C3C=CC(CO)C3)c2n1 (racemic) [Compound 18a, (±)-(1α,4α)-4-(5,7-Diamino-3H-1,2,3-triazolo[4,5-d]pyrimidin-3-yl)-2-cyclopentenyl carbinol] | – | cytotoxic | –
Nc1nc(O)c2ncn([C@H]3C=C[C@@H](CO)C3)c2n1 [(−)14a, (1S,4R)-4-(2-Amino-6-hydroxy-9H-Purin-9-yl)-2-cyclopentenyl Carbinol] | highly active | – | IC50 ([3]; Homo sapiens, CCRF-CEM, CEM cells): 189 mg/L (≈ 764 µM)
Nc1ncnc2c1ncn2[C@@H]1C[C@H](CO)[C@@H](O)[C@@H]1O [Cyclaridine] | – | – | activity against HSV-2 (HSV-2): highly active; TI50 against HIV in vitro (HIV [4]): 10
CC(=O)OCC1C=CC(n2cnc3c(O)nc(N)nc32)C1 (stereo not drawn) [acetate ester (R′=Ac) of 14a, (1α,4α)-4-(2-Amino-6-hydroxy-9H-purin-9-yl)-2-cyclopentenyl Acetoxycarbinol] | active | – | inhibition of HIV (HIV [1]; at 6 μg/ml): 28%
Cc1cn(C2CC(CO)C(N=[N+]=[N-])C2)c(=O)[nH]c1=O (stereo not drawn) [carbocyclic analog of AZT] | – | – | activity against HIV (HIV [4]): inactive
